Data as given in patent US20070142437A1, “CHEMICAL COMPOUNDS” (priority 2005, published 2007).

These compounds were tested on HUVEC cells (assay: Human Umbilical Vein Endothelial Cell (HUVEC) proliferation assay (BrdU incorporation)). Conditions: growth stimulated with VEGF, 72 hrs, read-out: Inhibition of HUVEC proliferation IC50.
Type: cell-based
Description: Human Umbilical Vein Endothelial Cell (HUVEC) Proliferation Assay (BrdU Incorporation) Materials
HUVEC cells and EGM-MV (Endothelial cell growth medium—microvascular) were purchased from Clonetics (San Diego, Calif.). VEGF and bFGF were purchased from R&D Systems (Minneapolis, Minn.). Anti-BrdU antibody was obtained from Chemicon International (Temecula, Calif.).
HUVECs were routinely maintained in EGM-MV medium and were used within passage 7. HUVECs were plated at a density of 2500 cells/well in M199 medium containing 5% FBS (Hyclone) in type I collagen coated plate (Becton Dickinson). The plate was incubated at 37° C. overnight. The medium was removed by aspiration, and test compounds were added to each well in a volume of 0.1 ml/well in serum-free M199 medium. Compound concentrations ranged from 1.5 nM to 30 micromolar. The plate was incubated for 30 min at 37° C. Another 0.1 ml of serum-free M199 medium containing BSA and VEGF (or bFGF) was added to give a final concentration of 0.1% BSA and 10 ng/ml VEGF (0.3 ng/ml bFGF). The plate was incubated at 37° C. for 72 hrs. BrdU was added to each well after the first 48 hrs to give a concentration of 10 micromolar. The colorimetric ELISA assay was performed according to manufacturer's (Roche Molecular Sciences) instructions, with detection by absorbance reading at 450 nm. Results were plotted as concentration of test compound vs. absorbance to give an IC50 value for inhibition of BrdU incorporation.
In the case of `COc1ccc(S(=O)(=O)CC2CCCO2)cc1Nc1ncc(-c2ccc(F)cc2)o1` (stereo not shown) [Example 94, 5-(4-fluorophenyl)-N-{2-methoxy-5-[(tetrahydrofuran-2-ylmethyl)sulfonyl]phenyl}-1,3-oxazol-2-amine], the IC50 is reported as < 1000 nM. For `CCC(CC)S(=O)(=O)c1ccc(OC)c(Nc2ncc(-c3ccc(F)cc3)o2)c1` [Example 90, N-{5-[(1-ethylpropyl)sulfonyl]-2-methoxyphenyl}-5-(4-fluorophenyl)-1,3-oxazol-2-amine], the IC50 was < 1000 nM. `COc1ccc(S(=O)(=O)N(C)C)cc1Nc1ncc(-c2cccc(-c3ccccc3)c2)o1` [Example 225, 3-{[5-(1,1′-biphenyl-3-yl)-1,3-oxazol-2-yl]amino}-4-methoxy-N,N-dimethylbenzenesulfonamide] was tested, and the IC50 was < 500 nM. `CCS(=O)(=O)c1ccc(OC)c(Nc2ncc(-c3cccc(-c4ccc(F)cc4)c3)o2)c1` [Example 183, N-[5-(ethylsulfonyl)-2-methoxyphenyl]-5-(4′-fluoro-1,1′-biphenyl-3-yl)-1,3-oxazol-2-amine] was tested, and the IC50 was < 500 nM. `CCS(=O)(=O)c1ccc(OC)c(Nc2ncc(-c3ccc(Cl)cc3)o2)c1` [Example 132, 5-(4-chlorophenyl)-N-[5-(ethylsulfonyl)-2-methoxyphenyl]-1,3-oxazol-2-amine] was tested, and the IC50 was < 1000 nM. With `CCS(=O)(=O)c1ccc(OC)c(Nc2ncc(-c3cccc(-c4ccco4)c3)o2)c1` [Example 181, N-[5-(ethylsulfonyl)-2-methoxyphenyl]-5-[3-(2-furyl)phenyl]-1,3-oxazol-2-amine] the IC50 was < 500 nM. In the case of `CCS(=O)(=O)c1ccc(OC)c(Nc2ncc(-c3cccc(O)c3)o2)c1` [Example 158], the IC50 is reported as < 1000 nM. For `COc1cc(Nc2ncc(-c3ccc(F)cc3)o2)cc(OC)c1OC` [Example 116, 5-(4-fluorophenyl)-N-(3,4,5-trimethoxyphenyl)-1,3-oxazol-2-amine], the IC50 was < 1000 nM. `CCS(=O)(=O)c1ccc(OC)c(Nc2ncc(-c3cccc(OC(C)c4ccncc4)c3)o2)c1` (stereo not shown) [Example 166, N-[5-(ethylsulfonyl)-2-methoxyphenyl]-5-[3-(1-pyridin-4-ylethoxy)phenyl]-1,3-oxazol-2-amine] was tested, and the IC50 was < 1000 nM. For `CCS(=O)(=O)c1ccc(OC)c(Nc2ncc(-c3cccc(-c4cncn4C)c3)o2)c1` [Example 179, N-[5-(ethylsulfonyl)-2-methoxyphenyl]-5-[3-(1-methyl-1H-imidazol-5-yl)phenyl]-1,3-oxazol-2-amine], the IC50 was < 500 nM. With `CCS(=O)(=O)c1ccc(OC)c(Nc2ncc(-c3ccc(F)c(F)c3)o2)c1` [Example 110, 5-(3,4-difluorophenyl)-N-[5-(ethylsulfonyl)-2-methoxyphenyl]-1,3-oxazol-2-amine] the IC50 was < 1000 nM. `CCS(=O)(=O)c1ccc(OC)c(Nc2ncc(-c3ccccc3)o2)c1` [Example 56, N-[5-(ethylsulfonyl)-2-methoxyphenyl]-5-phenyl-1,3-oxazol-2-amine] was tested, and the IC50 was < 500 nM. In the case of `CCS(=O)(=O)c1ccc(OC)c(Nc2ncc(-c3cccc(-c4ccccc4)c3)o2)c1` [Example 180, 5-(1,1′-biphenyl-3-yl)-N-[5-(ethylsulfonyl)-2-methoxyphenyl]-1,3-oxazol-2-amine], the IC50 is reported as < 500 nM. In the case of `COc1ccc(S(=O)(=O)NCc2ccccn2)cc1Nc1ncc(-c2ccc(F)cc2)o1` [Example 86, 3-{[5-(4-fluorophenyl)-1,3-oxazol-2-yl]amino}-4-methoxy-N-(pyridin-2-ylmethyl)benzenesulfonamide], the IC50 is reported as < 500 nM. `CNS(=O)(=O)c1ccc(OC)c(Nc2ncc(-c3cccc(-c4ccc(F)cc4)c3)o2)c1` [Example 189, 3-{[5-(4′-fluoro-1,1′-biphenyl-3-yl)-1,3-oxazol-2-yl]amino}-4-methoxy-N-methylbenzenesulfonamide] was tested, and the IC50 was < 500 nM. `COc1cc(Nc2ncc(-c3cccc(-c4ccccc4)c3)o2)cc(OC)c1OC` [Example 199, 5-(1,1′-biphenyl-3-yl)-N-(3,4,5-trimethoxyphenyl)-1,3-oxazol-2-amine] was tested, and the IC50 was < 500 nM. In the case of `COc1ccc(S(=O)(=O)N(C)C)cc1Nc1ncc(-c2ccc(F)cc2)o1` [Example 70, 3-{[5-(4-fluorophenyl)-1,3-oxazol-2-yl]amino}-4-methoxy-N,N-dimethylbenzenesulfonamide], the IC50 is reported as < 500 nM. With `C=Cc1cccc(-c2cnc(Nc3cc(S(=O)(=O)CC)ccc3OC)o2)c1` [Example 175, N-[5-(ethylsulfonyl)-2-methoxyphenyl]-5-(3-vinylphenyl)-1,3-oxazol-2-amine] the IC50 was < 1000 nM. With `COc1ccc(S(N)(=O)=O)cc1Nc1ncc(-c2ccc(F)cc2)o1` [Example 89, 3-{[5-(4-fluorophenyl)-1,3-oxazol-2-yl]amino}-4-methoxybenzenesulfonamide] the IC50 was < 1000 nM. `CCS(=O)(=O)c1ccc(OC)c(Nc2ncc(-c3ccc(C(N)=O)cc3)o2)c1` [Example 134] was tested, and the IC50 was < 500 nM. In the case of `CCS(=O)(=O)c1ccc(OC)c(Nc2ncc(-c3ccc4c(c3)OCCO4)o2)c1` [Example 148, 5-(Z,3-dihydro-1,4-benzodioxin-6-yl)-N-[5-(ethylsulfonyl)-2-methoxyphenyl]-1,3-oxazol-2-amine], the IC50 is reported as < 1000 nM. With `COc1ccc(S(=O)(=O)C2CCOC2)cc1Nc1ncc(-c2ccc(F)cc2)o1` (stereo not shown) [Example 95, 5-(4-fluorophenyl)-N-[2-methoxy-5-(tetrahydrofuran-3-ylsulfonyl)phenyl]-1,3-oxazol-2-amine] the IC50 was < 1000 nM. In the case of `CNS(=O)(=O)c1ccc(OC)c(Nc2ncc(-c3ccc(F)cc3)o2)c1` [Example 130, 3-{[5-(4-fluorophenyl)-1,3-oxazol-2-yl]amino}-4-methoxy-N-methylbenzenesulfonamide], the IC50 is reported as < 1000 nM. In the case of `CCS(=O)(=O)c1ccc(OC)c(Nc2ncc(-c3cccc(OCc4cccc(OC)c4OC)c3)o2)c1` [Example 165, 5-{3-[(2,3-dimethoxybenzyl)oxy]phenyl}-N-[5-(ethylsulfonyl)-2-methoxyphenyl]-1,3-oxazol-2-amine], the IC50 is reported as < 1000 nM. For `COc1ccc(S(=O)(=O)NC2CC2)cc1Nc1ncc(-c2cccc(-c3ccccc3)c2)o1` [Example 226, 3-{[5-(1,1′-biphenyl-3-yl)-1,3-oxazol-2-yl]amino}-N-cyclopropyl-4-methoxybenzenesulfonamide], the IC50 was < 500 nM. For `COc1ccc(CS(C)(=O)=O)cc1Nc1ncc(-c2ccc(F)cc2)o1` [Example 82, 5-(4-fluorophenyl)-N-{2-methoxy-5-[(methylsulfonyl)methyl]phenyl}-1,3-oxazol-2-amine], the IC50 was < 1000 nM. `CCS(=O)(=O)c1ccc(OC)c(Nc2ncc(-c3ccc(F)cc3)o2)c1` [Example 109, N-[5-(ethylsulfonyl)-2-methoxyphenyl]-5-(4-fluorophenyl)-1,3-oxazol-2-amine] was tested, and the IC50 was < 500 nM. For `COc1ccc(S(N)(=O)=O)cc1Nc1ncc(-c2cccc(-c3cccc(F)c3)c2)o1` [Example 214, 3-{[5-(3′-fluoro-1,1′-biphenyl-3-yl)-1,3-oxazol-2-yl]amino}-4-methoxybenzenesulfonamide], the IC50 was < 1000 nM. For `CNS(=O)(=O)Cc1ccc(Nc2ncc(-c3ccccc3)o2)cc1` [Example 51, N-methyl-1-{4-[(5-phenyl-1,3-oxazol-2-yl)amino]phenyl}methanesulfonamide], the IC50 was < 1000 nM. `COc1ccc(S(=O)(=O)NCc2ccncc2)cc1Nc1ncc(-c2ccc(F)cc2)o1` [Example 122, 3-{[5-(4-fluorophenyl)-1,3-oxazol-2-yl]amino}-4-methoxy-N-(pyridin-4-ylmethyl)benzenesulfonamide] was tested, and the IC50 was < 1000 nM. In the case of `CCNS(=O)(=O)c1ccc(OC)c(Nc2ncc(-c3cccc(-c4ccccn4)c3)o2)c1` [Example 218, N-ethyl-4-methoxy-3-{[5-(3-pyridin-2-ylphenyl)-1,3-oxazol-2-yl]amino}benzenesulfonamide], the IC50 is reported as < 500 nM. `CCCCNS(=O)(=O)c1ccc(OC)c(Nc2ncc(-c3cccc(-c4ccccc4)c3)o2)c1` [Example 227, 3-{[5-(1,1′-biphenyl-3-yl)-1,3-oxazol-2-yl]amino}-N-butyl-4-methoxybenzenesulfonamide] was tested, and the IC50 was < 1000 nM. With `COCCCNS(=O)(=O)c1ccc(OC)c(Nc2ncc(-c3ccc(F)cc3)o2)c1` [Example 129, 3-{[5-(4-fluorophenyl)-1,3-oxazol-2-yl]amino}-4-methoxy-N-(3-methoxypropyl)benzenesulfonamide] the IC50 was < 1000 nM. With `COc1ccc(S(=O)(=O)NC(C)C)cc1Nc1ncc(-c2cccc(-c3cccnc3)c2)o1` [Example 223, N-isopropyl-4-methoxy-3-{[5-(3-pyridin-3-ylphenyl)-1,3-oxazol-2-yl]amino}benzenesulfonamide] the IC50 was < 500 nM. With `CCS(=O)(=O)c1ccc(OC)c(Nc2ncc(-c3ccc4c(c3)OCCCO4)o2)c1` [Example 153, 5-(3,4-dihydro-2H-1,5-benzodioxepin-7-yl)-N-[5-(ethylsulfonyl)-2-methoxyphenyl]-1,3-oxazol-2-amine] the IC50 was < 1000 nM. `CCS(=O)(=O)c1ccc(OC)c(Nc2ncc(-c3cccc(-c4cccnc4)c3)o2)c1` [Example 174, N-[5-(ethylsulfonyl)-2-methoxyphenyl]-5-(3-pyridin-3-ylphenyl)-1,3-oxazol-2-amine] was tested, and the IC50 was < 1000 nM. With `CCS(=O)(=O)c1ccc(OC)c(Nc2ncc(-c3cccc(-c4ccccc4F)c3)o2)c1` [Example 215, N-[5-(ethylsulfonyl)-2-methoxyphenyl]-5-(2′-fluoro-1,1′-biphenyl-3-yl)-1,3-oxazol-2-amine] the IC50 was < 500 nM.
